Measured values as given in patent US20230365626A1, “Alloferon Peptide and Method Using the Same” (Industry Academy Cooperation Foundation of Sejong University, priority 2020, published 2023).
Square brackets hold non-standard residues; d marks the D form. Ends that are not written are not given here. Peptide text beside a SMILES is read from it.

Legend:
[1] = test system: Huntington protein aggregates (Htt aggregates); assay: Mutant Huntington protein aggregates in transfected 293T cells; assay type: cell-based
Procedure: (§1) In addition, in this study, H4 cell line (GL-H4) and 293T cell line in which the GFP-LC3 plasmid was permanently infected were used. As a cell culture medium, 10% fetal bovine serum (Hyclone, USA) and a mixture solution of antibiotics and antifungal agents (WellGene, South Korea) were added to Minimum Essential Medium (MEM, WellGene) and incubated in a cell incubator in which the conditions of 37° C. and 5% CO2 were maintained.
(§2) In the pre-preparation process, 10-12 days after cell culture, the culture medium of the cerebral cortex nerve cells was changed to a minimum essential medium (MEM, Gibco, USA) without adding serum, and then was treated with N,N,N′,N′-tetrakis(2-pyridylmethyl)ethylene-diamine (TPEN, 2 μM, Sigma, USA), which is a zinc chelator, 50 μM chloroquine (CQ), 100 nM bafilomycin A-1 (Baf-A1), 500 μM methyl-beta-cyclodextrin (MβCD), and 2 μM chloropromazine (CP). Here, the MβCD is a caveolin-mediated endocytosis inhibitor, and CP is a clathrin-mediated endocytosis inhibitor. In addition, in the cell line experiments, the medium was changed to MEM according to the purpose of the experiments and was then treated with 40 μM chloroquine (CQ) and 100 nM bafilomycin A-1 (Baf-A1). During the pre-preparation process, the medium was treated with alloferon D-form peptides (0.2, 2, or 20 μM), free zinc (25 μM), TPEN (1 μM), and the like separately or together according to the purpose of each experiment.
Subsequently, the present inventors investigated whether alloferon may dissolve Huntington protein aggregates (Htt aggregates) generated after the transient transfection of mutant Huntington protein (mt-Htt) into 293T cell lines. To this end, GFP-tagged Huntington Q74 (GFP-mHttQ74) DNA was transiently transfected into 293T cell lines using Lipofectamine2000. For cell observation, GFP signals were analyzed through a fluorescence microscope, and ImageJ was used for size and number analysis of GFP-positive aggregates (FIG. 8A). GFP-mHttQ74 DNA was provided by Dr. David C. Rubinsztein of the University of Cambridge, England (Park et al., Neurobiol. Dis. 42: 242-251, 2011). […]

[2] = test system: β-amyloid aggregates (Aβ aggregates); assay: β-amyloid 1-42 protein aggregates in transfected 293T cells; assay type: cell-based
Procedure: as §1, §2
Subsequently, the present inventors investigated whether alloferon may dissolve the β-amyloid aggregates (Aβ aggregates) generated after the transient transfection of β-amyloid 1-42 (Aβ1-42) into 293T cell lines. To this end, EGFP-tagged 1-42Aβ (pEGFP-C1-Abeta 1-42) DNA was transiently transfected into 293T cell lines using Lipofectamine2000. For cell observation, GFP signals were analyzed through a fluorescence microscope, and ImageJ was used for size and number analysis of GFP-positive aggregates. pEGFP-C1-Abeta 1-42 DNA was purchased from Addgene. Western blot analysis was performed in the same manner as in Example 5, except that anti-6E10-antibodies (Biolegend, USA) were used as the antibodies (FIG. 7).

cortical nerve cells [3] = assay: Mechanism of action: receptor-mediated endocytosis, p62/LC3 western blot with Baf-A1; assay type: cell-based, ICR mouse; conditions: inhibitor administered alone (500 μM MβCD or 2 μM CP) with Baf-A1 + 20 μM peptide (FIG. 9B)
Procedure: as §2
Since the protein cannot pass through the cell membrane, the present inventors thought that the alloferon D-form peptides would be introduced through an endocytosis process. Thus, the present inventors investigated whether the alloferon D-form peptides act through a receptor-mediated endocytosis process. […]

H4 cell line (GL-H4) = assay: LC3-GFP puncta, autophagic flux blocked by chloroquine (fluorescence microscopy); assay type: cell-based; conditions: 50 μM CQ alone
Procedure: In addition, in this study, H4 cell line (GL-H4) and 293T cell line in which the GFP-LC3 plasmid was permanently infected were used. As a cell culture medium, 10% fetal bovine serum (Hyclone, USA) and a mixture solution of antibiotics and antifungal agents ([…], South Korea) were added to Minimum Essential Medium ([…]) and incubated in a cell incubator in which the conditions of 37° C. and 5% CO2 were maintained. […] Here, the MβCD is a caveolin-mediated endocytosis inhibitor, and CP is a clathrin-mediated endocytosis inhibitor. In addition, in the cell line experiments, the medium was changed to MEM according to the purpose of the experiments and was then treated with 40 μM chloroquine (CQ) and 100 nM bafilomycin A-1 (Baf-A1). During the pre-preparation process, the medium was treated with alloferon D-form peptides (0.2, 2, or 20 μM), free zinc (25 μM), TPEN (1 μM), and the like separately or together according to the purpose of each experiment. […] Protein quantification was performed using BCA protein assay kit (Pierce Biotechnology, USA). Then, 5× sample buffer (300 mM Tris, pH 6.8, 10% SDS, 50% glycerol, 0.1% BPB, 2.5% mercaptoethanol, and 100 mM DTT) was mixed with a quantified sample and denatured at 95° C. for 5 minutes to prepare the sample. […]

cortical nerve cells [4] = assay: Lysotracker staining (lysosomal pH); assay type: cell-based, ICR mouse
From the text: The cerebral cortex nerve cells of the mice were obtained by extracting the cerebrum from ICR mouse embryos of 13-14 day gestation. 6-7 hemispheres per culture dish were inoculated on 24-well culture dishes or 6-well culture dishes (SPL Life Science, South Korea) coated with 0.01% poly-D-lysine (Sigma, USA) prepared in advance. […]
Since it was confirmed through FIG. 2 that alloferon may promote the autophagic flux, whether the alloferon D-form peptides are involved in pH change in the lysosome was confirmed through lysotracker staining. […] It means that the stronger the fluorescence intensity, the lower the pH, and the weaker the fluorescence intensity, the higher the pH. It was confirmed that the pH in the lysosome was lowered by only the treatment with the alloferon D-form peptides compared to the control (FIG. 3A), and when treatment with 50 μM CQ was performed, the fluorescence intensity decreased compared to the control, and this was recovered by the treatment with the alloferon D-form peptides and zinc (FIG. 3B). […]

[5] = test system: cerebral cortical nerve cells; assay: Zinpyr-1 staining (zinc in the lysosome); assay type: cell-based, ICR mouse; conditions: in combination with 1 μM TPEN, 4 hours
Procedure: Subsequently, the present inventors measured the zinc concentration in the cells to determine what effect the treatment with the alloferon D-form peptides has on the zinc concentration in the lysosome. To this end, specifically, the cerebral cortical nerve cells were washed once with MEM, and then the MEM was replaced with MEM containing 5 μM zinpyr-1, an intracellular zinc marker (Cayman Chemical, USA, Ex=492 nm, Em=527 nm) and 75 nM lysotracker, and left at 37° C. for 30 minutes. Thereafter, it was washed with fresh MEM and treated with individual reagents (alloferon D-form peptides) according to the experimental conditions. Then, the cells were fixed with 4% PFA (pH 7.4) for 15 minutes, washed twice with PBS (Biowest, France), and photographed with a fluorescent microscope.

[6] = test system: TFEB, cathepsin B, and cathepsin D; assay: Western blot of TFEB, cathepsin B and cathepsin D expression; assay type: cell-based, ICR mouse; conditions: 1 μM TPEN with 20 μM alloferon D-form peptide, 4 hours (FIG. 5B)
Procedure: The cerebral cortex nerve cells of the mice were obtained by extracting the cerebrum from ICR mouse embryos of 13-14 day gestation. 6-7 hemispheres per culture dish were inoculated on 24-well culture dishes or 6-well culture dishes (SPL Life Science, South Korea) coated with 0.01% poly-D-lysine (Sigma, USA) prepared in advance. A cell culture medium, in which Dulbecco's Modified Eagle's Medium (DMEM, Gibco, USA) to which 20 mM glucose and 38 mM sodium bicarbonate were added and which was further supplemented with 5% fetal bovine serum (Hyclone, USA), 5% horse serum (Gibco, USA), and 1% glutamine, was used, and the cell culture medium was incubated in a cell incubator, in which the conditions of 37° C. and 5% CO2 were maintained, and was used in this experiment 10 to 12 days in vitro (DIV) after inoculation.
The present inventors had observed that the effect of enhancing the autophagic flux by the alloferon D-form peptides is achieved through the activity of cathepsin B and the decrease in the lysosomal pH, and thus, this time, the present inventors investigated through western blot analysis in order to find out whether there is a change in the amount of lysosomal protease expression. […]

TNF-α = conditions: 0.5, 2, 8, and 16 mg/kg intraperitoneally, after 1 hour
Procedure: (§3) Specifically, the alloferon D-form peptides were intraperitoneally injected at 0.5, 2, 8, and 16 mg/kg, and after 1 hour, blood was collected from the retro-orbital plexus of the mice. The collected blood was centrifuged at 2,000 g at 4° C. for 20 minutes using a centrifuge, and then only the supernatant was taken to obtain plasma. Thereafter, an experiment was performed using TNF-α and IL-6 Elisa kit (RayBiotech, USA). Specifically, 100 μL of plasma sample was put into a 96-well microplate coated with each of anti-TNF-α and anti-IL-6 antibodies, and then left while shaking at room temperature for 2 hours and 30 minutes. Thereafter, the sample was discarded, washed 4 times with a wash buffer provided from the kit, and then 100 μL of the biotin-binding secondary antibodies was reacted for 1 hour. Then, it was washed 4 times with a washing buffer, 100 μL of streptavidin solution was added thereto, left while shaking at room temperature for 45 minutes, and washed again 4 times with a washing buffer. After 100 μL of TMB One-step substrate was added thereto and left for 30 minutes, 50 μL of a reaction termination solution was added thereto, and then 450 nm absorbance was measured by a spectrophotometer.

[7] = Body weight change during intraperitoneal administration; assay type: in vivo, mice; conditions: 16 mg/kg intraperitoneal, 14 weeks (FIG. 10C)
IL-6 = assay: Plasma cytokine ELISA after intraperitoneal injection; assay type: in vivo, mice; conditions: 0.5, 2, 8, and 16 mg/kg intraperitoneally, after 1 hour
Procedure: as §3

[8] = In vitro plasma stability analysis (LC / mass spectrometry)
Procedure: In vitro plasma stability analysis was performed in order to compare the stability of L-form peptides and D-form peptides of the alloferon in the plasma of mice. […] The 10 μM alloferon L-form and D-form peptides were put into 100 μL of plasma, respectively, and then allowed to stand at 37° C. for 0, 5, 10, 30, 60, and 90 minutes. Thereafter, 500 μL of cold methanol was added thereto to precipitate proteins, and the proteins were lyophilized, followed by liquid chromatography and protein mass spectrometry.

[9] = 100 nM bafilomycin A1 alone, 12 hours
[10] = treatment alone, without Baf-A1

CO/C1=C\C(C)=C\[C@@H](C)[C@@H](O)[C@@H](C)C/C(C)=C/C=C/[C@H](OC)[C@@H]([C@@H](C)[C@@H](O)[C@H](C)[C@@]2(O)C[C@@H](O)[C@H](C)[C@@H](C(C)C)O2)OC1=O [Baf-A1, bafilomycin A-1]
Huntington protein aggregates [1, 9]: increased | β-amyloid protein aggregates [2, 9]: increased

CN(C)CCCN1c2ccccc2Sc2ccc(Cl)cc21 [CP, chloropromazine]
effect of the alloferon D-form peptides on autophagic flux (cortical nerve cells [3]): not changed

CCN(CC)CCCC(C)Nc1ccnc2cc(Cl)ccc12 (stereo not shown) [CQ, chloroquine]
number and size of LC3 puncta (H4 cell line (GL-H4)): significantly increased | lysotracker fluorescence intensity compared to the control (cortical nerve cells [4]; 50 μM CQ alone, 4 hours): decreased

c1ccc(CN(CCN(Cc2ccccn2)Cc2ccccn2)Cc2ccccn2)nc1 [TPEN, N,N,N′,N′-tetrakis(2-pyridylmethyl)ethylene-diamine]
Zinpyr-1 fluorescence increased by the alloferon D-form peptides [5]: reduced | amounts of TFEB, cathepsin B, and cathepsin D [6]: reduced

CC(C)[C@@H](NC(=O)CNC(=O)[C@H](N)Cc1c[nH]cn1)C(=O)N[C@H](CO)C(=O)NCC(=O)N[C@H](Cc1c[nH]cn1)C(=O)NCC(=O)N[C@H](CCC(N)=O)C(=O)N[C@H](Cc1c[nH]cn1)C(=O)NCC(=O)N[C@@H](C(=O)N[C@H](Cc1c[nH]cn1)C(=O)NCC(=O)O)C(C)C [alloferon D-form peptides] (H-[dH]G[dV][dS]G[dH]G[dQ][dH]G[dV][dH]G-OH; N-terminus and C-terminus assumed)
changes in TNF-α in plasma compared to the control (TNF-α): not observed | amount of changes in the body weights of mice [7]: did not change | changes in IL-6 in plasma compared to the control (IL-6): not observed

[Zn] [zinc]
lysotracker fluorescence intensity decreased by 50 μM CQ (cortical nerve cells [4]; 20 μM peptide or 25 μM zinc + 50 μM chloroquine, 4 hours (FIG. 3B)): recovered | Huntington protein aggregates increased by Baf-A1 ([1]; 100 nM bafilomycin A1 + 20 μM peptide or 25 μM zinc, 12 hours (FIG. 8)): decreased | Huntington protein aggregates compared to the control [1, 10]: no change | β-amyloid protein aggregates increased by Baf-A1 (fluorescence) ([2]; 100 nM bafilomycin A1 + 2 or 20 μM peptide or 25 μM zinc, 12 hours (FIG. 7A)): decreased | β-amyloid aggregates increased by Baf-A1 (western blot) ([2]; 100 nM bafilomycin A1 + peptide or 25 μM zinc, 12 hours (FIG. 7B)): decreased | β-amyloid protein aggregates compared to the control group [2, 10]: no change

HGVSGHGQHGVHG [alloferon L-form peptides]
degradation / stability in plasma ([8]; mouse plasma, 10 μM, 37° C., 0-90 minutes): degraded from an early time in plasma | half-life ([8]; mouse, plasma): 51.8 min

methyl-beta-cyclodextrin [MβCD]
effect of the alloferon D-form peptides on autophagic flux (cortical nerve cells [3]): not changed
